Source: patent US20130149331A1, “RHAMNOSE AND FORSSMAN CONJUGATED IMMUNOGENIC AGENTS” (priority 2011, published 2013)

Test system: anti-Rha antibodies in normal human serum
Assay: Competitive ELISA assay with free monosaccharides, BSA-R1 immobilized
Format: binding
Settings: free monosaccharide 200 mM to 12.5 mM; human serum 1:2000; anti-human IgG detection
Protocol: Competitive ELISA assay. To further verify the specific antibody against Rha epitopes, inhibition ELISA was performed by immobilizing Rha conjugated BSA (BSA-R1) (10 μg ml^−1) on the 96-well plate, and free D-mannose (Man), D-glucose (Glc), N-Acetyl-Dglucosamine (GlcNAc), D-xylose (Xyl), L-fucose (Fuc), N-Acetyl-D-galactosamine (GalNAc), D-galactose (Gal) and L-rhamnose (Rha) were used as competing antigens (2-fold dilutions from 200 mM to 12.5 mM). After coated with BSA-R1 at 4° C. overnight, the solution was depleted and washed by PBST for three times (three minutes each time). Then, the plate was blocked with 5% (w/v) non-fat milk (PBST) in RT for 1.5 h, and rinsed by PBST once. Normal human serum diluted (1:2000) previously, containing different free monosaccharide at different concentration, was added into the 96-well plate with 0.1 mL per well. After 2 h incubation, the plate was rinsed by PBST 3 times. Then 0.1 mL Horseradish Peroxidase (HRP)-conjugated antihuman IgG antibody (1:3000) was added into each well and stayed in RT for 1 h. Finally, after the plates were washed, enzyme substrate tetramethylbenzidine (TMB) was added and allowed to react for 10-20 min before the enzymatic reaction was terminated by adding 1N HCl and the absorbance was read at wavelength of 450 nm in a FlexStation® 3 Microplate Reader (Molecular devices).

C[C@H](O)[C@H](O)[C@@H](O)[C@@H](O)C=O [Rha, L-rhamnose]
competition for antibodies in human serum: pulled down the antibodies
